In US20090075974A1, “AGENT FOR PROPHYLAXIS AND TREATMENT OF PANCREATITIS” (UMN Pharma Inc., priority 2005, published 2009):
Read-outs that look alike come from different tables or passages of the source.

How the values were obtained:
5-HT2C receptor = molecular target: T1, 5-HT2C receptor (Homo sapiens, UniProt P28335); conditions: literature values, cited from earlier work
T1 construct: expressed in transfected cells; host or cells: HEK-293 (membrane fractions)
T1 sequence (P28335 33-458): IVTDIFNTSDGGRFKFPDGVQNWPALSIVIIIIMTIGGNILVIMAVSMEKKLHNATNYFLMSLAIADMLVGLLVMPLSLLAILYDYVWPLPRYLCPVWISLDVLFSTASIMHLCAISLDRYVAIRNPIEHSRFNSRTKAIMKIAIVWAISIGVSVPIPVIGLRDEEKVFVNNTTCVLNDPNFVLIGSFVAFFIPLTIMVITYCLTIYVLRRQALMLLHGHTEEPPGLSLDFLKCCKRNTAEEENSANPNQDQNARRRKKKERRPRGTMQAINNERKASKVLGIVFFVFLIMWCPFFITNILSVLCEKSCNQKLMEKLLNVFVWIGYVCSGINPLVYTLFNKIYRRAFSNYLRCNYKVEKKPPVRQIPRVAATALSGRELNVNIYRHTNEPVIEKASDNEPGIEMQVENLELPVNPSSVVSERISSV

[1] = system: mouse with cerulein-induced pancreatitis; assay: Cerulein-induced acute pancreatitis in mouse: amylase and lipase activity in plasma; type: in vivo; conditions: for inhibition rate of amylase activity: Example 2, FIG. 2, drug 3.2 mg/Kg; for effect on amylase in blood of mice administered with cerulein / effect on lipase in blood of mice administered with cerulein: Example 1, FIG. 1, under the dorsal skin 15 min before first cerulein, ketanserin 3.2 mg/Kg
Experimental: Receptor subtypes involved in the onset of pancreatitis were examined with the use of antagonists of 5-HT2A receptor, 5-HT2B receptor, and 5-HT2C receptor. A mouse having acute pancreatitis induced by excessive administration of cerulein was used as an animal model. This model is not affected by food consumption, which is different from CDE pancreatitis, and thus it is possible to obtain constant pathologic features and analyze data more accurately.
An aqueous solution of cerulein (0.05 mg/Kg) was administered to a five-week-old mouse every one hour five times by hypodermic injection. Each 5-HT2 antagonist suspended in a solvent (0.5% methylcellulose in saline) was administered under the dorsal skin 15 minutes before the first administration of cerulein. […] Further, only the solvent was administered to the control group (group administered with cerulein alone) under the dorsal skin. One hour after the final administration, blood was collected, and amylase activity and lipase activity in the plasma were determined.
Effects of various 5-HT2A antagonists on amylase activity and lipase activity in plasma of cerulein-induced pancreatic mice were examined. […] Then the amylase activity and the lipase activity in plasma were determined.
Effects of various 5-HT2 antagonists on amylase activity and lipase activity in plasma of cerulein-induced pancreatic mice were examined. […] Then the amylase activity and the lipase activity in plasma were determined.

5-HT2B receptor = molecular target: T2, 5-HT2B receptor (Homo sapiens, UniProt P41595); conditions: literature values, cited from earlier work
T2 construct: expressed in transfected cells; host or cells: CHO-K1 (membrane fractions)
T2 sequence (P41595 whole entry): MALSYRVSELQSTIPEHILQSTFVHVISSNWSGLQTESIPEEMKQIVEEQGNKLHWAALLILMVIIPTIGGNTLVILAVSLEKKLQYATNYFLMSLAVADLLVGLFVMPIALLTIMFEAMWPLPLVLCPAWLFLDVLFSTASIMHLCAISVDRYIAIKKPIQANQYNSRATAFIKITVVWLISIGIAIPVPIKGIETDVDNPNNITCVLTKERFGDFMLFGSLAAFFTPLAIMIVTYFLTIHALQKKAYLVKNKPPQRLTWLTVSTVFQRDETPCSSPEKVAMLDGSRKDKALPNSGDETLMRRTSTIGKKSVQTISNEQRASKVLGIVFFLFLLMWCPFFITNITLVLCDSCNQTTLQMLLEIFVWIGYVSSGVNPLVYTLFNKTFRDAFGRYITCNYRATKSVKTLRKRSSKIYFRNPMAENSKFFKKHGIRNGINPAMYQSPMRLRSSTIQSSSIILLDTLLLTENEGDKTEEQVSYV

[2] = plasma, cerulein-induced pancreatitis mouse
[3] = Bonhaus et al. (1995), second block of Table 1

| Compound | inhibition rate of amylase activity [1, 2] [%] | effect on amylase in blood of mice administered with cerulein [1] | effect on lipase in blood of mice administered with cerulein [1] | other results |
| --- | --- | --- | --- | --- |
| O=C1NCN(c2ccccc2)C12CCN(CCCOc1ccc(F)cc1)CC2 [AMI-193] | 17 |  |  | 5-HT2C pKi ± SEM (5-HT2C receptor; Knight et al. (2004)): 5.81 ± 0.16 |
| OC(c1ccccc1)C1CCN(CCc2ccccc2)CC1 (stereo not drawn) [MDL11939] | −4 |  |  |  |
| CN1C[C@H](CNC(=O)OCc2ccccc2)C[C@@H]2c3cccc4c3c(cn4C)C[C@H]21 [Metergoline, metergoline] |  |  |  | inhibition rate of amylase ([1]; Example 3, FIG. 3, drug 3.2 mg/kg, plasma, cerulein-induced pancreatitis mouse): 30% |
| Cc1cc(NC(=O)Nc2ccc3c(ccn3C)c2)sn1 [SB204741] |  | didn't show any effect | didn't show any effect | 5-HT2B pKi ± SEM (5-HT2B receptor; [3]): 7.1 ± 0.08; 5-HT2B pKi ± SEM (5-HT2B receptor; Knight et al. (2004)): 6.90 ± 0.27 |
| Cc1cc2c(cc1Cl)N(C(=O)Nc1ccc(Oc3cccnc3C)nc1)CC2 [SB242084] |  | didn't show any effect | didn't show any effect |  |
| O=C(c1ccc(F)cc1)C1CCN(CCn2c(=O)[nH]c3ccccc3c2=O)CC1 [ketanserin] | 37 | significantly decreased | significantly decreased |  |
| Cc1nc2n(c(=O)c1CCN1CCC(c3noc4cc(F)ccc34)CC1)CCCC2 [risperidone] | 52 |  |  |  |
| O=C(CCCN1CCC2(CC1)C(=O)NCN2c1ccccc1)c1ccc(F)cc1 [spiperone] |  |  |  | 5-HT2C pKi ± SEM (5-HT2C receptor; [3]): <6.00 |
